Test results published in patent US6737383B1, “Herbicidal oxadiazolidines” (priority 1999, dated 2004).

Tests used:
blackgrass = experiment: Test B pre/postemergence blackgrass; type: in vivo, Alopecurus myosuroides
Outline: (§1)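 Response is a visual 0-to-10 score relative to untreated plants, where 0 means no effect and 10 means complete control, taken twelve to sixteen days after application. Treatments went onto soil at planting and onto foliage of 1- to 4-leaf plants, using a surfactant-containing non-phytotoxic solvent.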

cocklebur = experiment: Test B pre/postemergence cocklebur; type: in vivo, Xanthium strumarium
Outline: as §1

giant foxtail = experiment: Test B pre/postemergence giant foxtail; type: in vivo, Setaria faberii
Outline: as §1

morningglory = experiment: Test B pre/postemergence morningglory; type: in vivo, Ipomoea hederacea
Outline: as §1

pigweed = experiment: Test B pre/postemergence pigweed; type: in vivo, Amaranthus retroflexus
Outline: as §1

rape = experiment: Test B pre/postemergence rape; type: in vivo, Brassica napus
Outline: as §1

soybean = experiment: Test B pre/postemergence soybean; type: in vivo, Glycine max
Outline: as §1

sugar beet = experiment: Test B pre/postemergence sugar beet; type: in vivo, Beta vulgaris
Outline: as §1

velvetleaf = experiment: Test B pre/postemergence velvetleaf; type: in vivo, Abutilon theophrasti
Outline: as §1

wheat = experiment: Test B pre/postemergence wheat; type: in vivo, Triticum aestivum
Outline: as §1

wild oat = experiment: Test B pre/postemergence wild oat; type: in vivo, Avena fatua
Outline: as §1

purple nutsedge = experiment: Test B pre/postemergence purple nutsedge; type: in vivo, Cyperus rotundus
Outline: as §1

rice = experiment: Test B flood test rice; type: in vivo, Oryza sativa
Outline: (§2)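 Each value is a visual injury score relative to controls, with 10 meaning complete control and 0 no effect. Evaluation took place twelve to sixteen days after the 2-leaf-stage plants were treated and kept in the greenhouse.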

smallflower flatsedge = experiment: Test B flood test smallflower flatsedge; type: in vivo, Cyperus difformis
Outline: as §2

duck salad = experiment: Test B flood test duck salad; type: in vivo, Heteranthera limosa
Outline: as §2

bamyardgrass = experiment: Test B flood test barnyardgrass; type: in vivo, Echinochloa crus-galli
Outline: as §2

[1] = Postemergence, Rate 62 g/ha, scale 0 to 10, 0 is no effect, 10 is complete control
[2] = Postemergence, Rate 125 g/ha, scale of 0 to 10 where 0 is no effect and 10 is complete control
[3] = Postemergence, Rate 250 g/ha, scale of 0 to 10, 0 is no effect, 10 is complete control
[4] = Postemergence, Rate 500 g/ha, scale of 0 to 10 where 0 is no effect and 10 is complete control
[5] = Preemergence, Rate 62 g/ha, scale of 0 to 10 where 0 is no effect and 10 is complete control
[6] = Preemergence, Rate 125 g/ha, scale of 0 to 10 where 0 is no effect and 10 is complete control
[7] = Preemergence, Rate 250 g/ha, scale 0 to 10 (0 no effect, 10 complete control)
[8] = Preemergence, Rate 500 g/ha, scale of 0 to 10 where 0 is no effect and 10 is complete control
[9] = Rate 62 g/ha, flood test species, Pre-emergence, visual evaluation after twelve to sixteen days
[10] = Rate 125 g/ha, under heading Pre-emergence, flood test species, visual evaluation after twelve to sixteen days
[11] = Rate 250 g/ha, Pre-emergence (flood test species), scale 0 to 10, 0 is no effect, 10 is complete control
[12] = Rate 500 g/ha, Pre-emergence section of Table B, 0 to 10 scale (0 no effect, 10 complete control)

Structure (SMILES): CC(C)N(C(=O)n1oc(=O)n(CCC(=O)N(C)C)c1=O)c1ccc(F)cc1 [Compound 638]
- Plant response rating, Blackgrass (blackgrass; [1]): 0
- Plant response rating, Blackgrass (blackgrass; [2]): 4
- Blackgrass plant response rating (blackgrass; [3]): 6
- Plant response rating, Blackgrass (blackgrass; [4]): 7
- Blackgrass plant response rating (blackgrass; [5]): 4
- Blackgrass plant response rating (blackgrass; [6]): 5
- Plant response rating, Blackgrass (blackgrass; [7]): 9
- Plant response rating, Blackgrass (blackgrass; [8]): 9
- Plant response rating, Cocklebur (cocklebur; [1]): 0
- Plant response rating, Cocklebur (cocklebur; [2]): 0
- Cocklebur plant response rating (cocklebur; [3]): 2
- Plant response rating, Cocklebur (cocklebur; [4]): 4
- Cocklebur plant response rating (cocklebur; [5]): 0
- Cocklebur plant response rating (cocklebur; [6]): 0
- Plant response rating, Cocklebur (cocklebur; [7]): 4
- Plant response rating, Cocklebur (cocklebur; [8]): 9
- Plant response rating, Giant foxtail (giant foxtail; [1]): 5
- Plant response rating, Giant foxtail (giant foxtail; [2]): 6
- Giant foxtail plant response rating (giant foxtail; [3]): 8
- Plant response rating, Giant foxtail (giant foxtail; [4]): 8
- Giant foxtail plant response rating (giant foxtail; [5]): 10
- Giant foxtail plant response rating (giant foxtail; [6]): 10
- Plant response rating, Giant foxtail (giant foxtail; [7]): 10
- Plant response rating, Giant foxtail (giant foxtail; [8]): 10
- Plant response rating, Morningglory (morningglory; [1]): 0
- Plant response rating, Morningglory (morningglory; [2]): 2
- Morningglory plant response rating (morningglory; [3]): 3
- Plant response rating, Morningglory (morningglory; [4]): 7
- Morningglory plant response rating (morningglory; [5]): 0
- Morningglory plant response rating (morningglory; [6]): 0
- Plant response rating, Morningglory (morningglory; [7]): 2
- Plant response rating, Morningglory (morningglory; [8]): 7
- Plant response rating, Redroot pigweed (pigweed; [1]): 0
- Plant response rating, Redroot pigweed (pigweed; [2]): 0
- Redroot pigweed plant response rating (pigweed; [3]): 0
- Redroot pigweed plant response rating (pigweed; [5]): 7
- Redroot pigweed plant response rating (pigweed; [6]): 10
- Plant response rating, Redroot pigweed (pigweed; [7]): 10
- Plant response rating, Redroot pigweed (pigweed; [8]): 10
- Plant response rating, Rape (rape; [1]): 0
- Plant response rating, Rape (rape; [2]): 0
- Rape plant response rating (rape; [3]): 0
- Plant response rating, Rape (rape; [4]): 0
- Rape plant response rating (rape; [5]): 0
- Rape plant response rating (rape; [6]): 5
- Plant response rating, Rape (rape; [7]): 8
- Plant response rating, Rape (rape; [8]): 10
- Plant response rating, Soybean (soybean; [1]): 1
- Plant response rating, Soybean (soybean; [2]): 1
- Soybean plant response rating (soybean; [3]): 3
- Soybean plant response rating (soybean; [5]): 0
- Soybean plant response rating (soybean; [6]): 0
- Plant response rating, Soybean (soybean; [7]): 3
- Plant response rating, Soybean (soybean; [8]): 3
- Plant response rating, Sugarbeets (sugar beet; [1]): 0
- Plant response rating, Sugarbeets (sugar beet; [2]): 0
- Sugarbeets plant response rating (sugar beet; [3]): 0
- Sugarbeets plant response rating (sugar beet; [5]): 0
- Sugarbeets plant response rating (sugar beet; [6]): 6
- Plant response rating, Sugarbeets (sugar beet; [7]): 6
- Plant response rating, Sugarbeets (sugar beet; [8]): 10
- Plant response rating, Velvetleaf (velvetleaf; [1]): 0
- Plant response rating, Velvetleaf (velvetleaf; [2]): 2
- Velvetleaf plant response rating (velvetleaf; [3]): 4
- Velvetleaf plant response rating (velvetleaf; [5]): 3
- Velvetleaf plant response rating (velvetleaf; [6]): 5
- Plant response rating, Velvetleaf (velvetleaf; [7]): 5
- Plant response rating, Velvetleaf (velvetleaf; [8]): 10
- Plant response rating, Wheat (wheat; [1]): 0
- Plant response rating, Wheat (wheat; [2]): 0
- Wheat plant response rating (wheat; [3]): 3
- Wheat plant response rating (wheat; [5]): 0
- Wheat plant response rating (wheat; [6]): 0
- Plant response rating, Wheat (wheat; [7]): 3
- Plant response rating, Wheat (wheat; [8]): 7
- Plant response rating, Wild oats (wild oat; [1]): 1
- Plant response rating, Wild oats (wild oat; [2]): 1
- Wild oats plant response rating (wild oat; [3]): 1
- Wild oats plant response rating (wild oat; [5]): 4
- Wild oats plant response rating (wild oat; [6]): 4
- Plant response rating, Wild oats (wild oat; [7]): 10
- Plant response rating, Wild oats (wild oat; [8]): 10
- Plant response rating, Nutsedge (purple nutsedge; [1]): 0
- Plant response rating, Nutsedge (purple nutsedge; [2]): 5
- Plant response rating, Nutsedge (purple nutsedge; [4]): 7
- Nutsedge plant response rating (purple nutsedge; [5]): 0
- Nutsedge plant response rating (purple nutsedge; [6]): 5
- Plant response rating, Nutsedge (purple nutsedge; [7]): 5
- Plant response rating, Nutsedge (purple nutsedge; [8]): 8
- Plant response rating, Rice (0 to 10 scale, 0 is no effect, 10 is complete control) (rice; [9]): 0
- Rice plant response rating (0 to 10 scale, 0 is no effect, 10 is complete control) (rice; [10]): 0
- Rice plant response rating (rice; [11]): 0
- Rice plant response rating (rice; [12]): 0
- Plant response rating, S. Flatsedge (0 to 10 scale, 0 is no effect, 10 is complete control) (smallflower flatsedge; [9]): 0
- S. Flatsedge plant response rating (0 to 10 scale, 0 is no effect, 10 is complete control) (smallflower flatsedge; [10]): 0
- S. Flatsedge plant response rating (smallflower flatsedge; [11]): 0
- S. Flatsedge plant response rating (smallflower flatsedge; [12]): 0
- Plant response rating, Ducksalad (0 to 10 scale, 0 is no effect, 10 is complete control) (duck salad; [9]): 0
- Ducksalad plant response rating (0 to 10 scale, 0 is no effect, 10 is complete control) (duck salad; [10]): 0
- Ducksalad plant response rating (duck salad; [11]): 0
- Ducksalad plant response rating (duck salad; [12]): 0
- Plant response rating, Barnyardgrass (0 to 10 scale, 0 is no effect, 10 is complete control) (bamyardgrass; [9]): 0
- Barnyardgrass plant response rating (0 to 10 scale, 0 is no effect, 10 is complete control) (bamyardgrass; [10]): 0
- Barnyardgrass plant response rating (bamyardgrass; [11]): 0
- Barnyardgrass plant response rating (bamyardgrass; [12]): 0
